# According to patent US20250313563A1, “GLYCOGEN SYNTHASE KINASE 3 INHIBITORS AND USES THEREOF” (The Broad Institute, Inc., priority 2022, published 2025):
# Where two headings read alike, the source gives them in different places.
# How the values were obtained:
# [1] = biological target: GSK3α (GST-full length GSK3α) (Homo sapiens (Human), UniProt P49840); assay: GSK3α TR-FRET kinase assay; assay type: biochemical
# Method in brief: (§1)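 Readout: anti-pSer641 Tb antibody/streptavidin-d2 signal after 60 min, expressed as 665/615 ratio and fitted versus log concentration for IC50. Enzyme: 1 nM GST-GSK3 (α or β), compound-preincubated 30 min. Conditions: pH 7.5 Tris buffer with MgCl2, DTT, BSA; ATP at 4 or 2 μM, or 1 mM; 100 min.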
# [2] = biological target: GSK3b (GST-full length GSK3b) (Homo sapiens (Human), UniProt P49841); assay: GSK3b TR-FRET kinase assay; assay type: biochemical
# Method in brief: as §1
# [3] = 1 nM GSK3α, 4 μM ATP, 30 minute preincubation, Table 16, read-out: GSK3-A TR-FRET BIOCHEMICAL (TR-FRET)
# [4] = 1 nM GSK3b, 2 μM ATP, 30 minute preincubation, Table 16, read-out: GSK3-B TR-FRET BIOCHEMICAL (TR-FRET)
# [5] = 1 nM GSK3α, 4 μM ATP, 30 minute preincubation, Table 16, read-out: GSK3-A TR-FRET BIOCHEMICAL (TR-FRET), IC50
# [6] = 1 nM GSK3b, 2 μM ATP, 30 minute preincubation, Table 16, read-out: GSK3-B TR-FRET BIOCHEMICAL (TR-FRET), IC50
# [7] = 1 nM GSK3α, 4 μM ATP, 30 minute preincubation, read-out: GSK3-A TR-FRET BIOCHEMICAL (TR-FRET), IC50
# [8] = 1 nM GSK3b, 2 μM ATP, 30 minute preincubation, read-out: GSK3-B TR-FRET BIOCHEMICAL (TR-FRET), IC50
# [9] = read-out: GSK3-B (TR-FRET 1 mM ATP), GMean, IC50, 1 mM ATP, geometric mean
# [10] = GSK3-A (TR-FRET 1 mM ATP), GMean, IC50, 1 mM ATP, geometric mean
# [11] = GSK3-B (TR-FRET 1 mM ATP), GMean, IC50, 1 mM ATP, geometric mean
# [12] = read-out: GSK3-A (TR-FRET 1 mM ATP), GMean, IC50, 1 mM ATP, geometric mean
# Chain of GSK3b (GST-full length GSK3b) (P49841 whole entry): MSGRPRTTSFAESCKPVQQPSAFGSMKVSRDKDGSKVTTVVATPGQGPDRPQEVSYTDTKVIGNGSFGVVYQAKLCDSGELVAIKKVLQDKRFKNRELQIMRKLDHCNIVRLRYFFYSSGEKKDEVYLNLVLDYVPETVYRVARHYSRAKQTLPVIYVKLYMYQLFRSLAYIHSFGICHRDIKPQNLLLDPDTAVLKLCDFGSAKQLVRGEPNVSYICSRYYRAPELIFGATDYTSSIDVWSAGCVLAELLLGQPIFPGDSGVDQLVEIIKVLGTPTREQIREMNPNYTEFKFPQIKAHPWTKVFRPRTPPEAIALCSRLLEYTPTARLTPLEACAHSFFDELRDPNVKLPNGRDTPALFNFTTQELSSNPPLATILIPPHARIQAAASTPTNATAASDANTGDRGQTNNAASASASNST
# Chain of GSK3α (GST-full length GSK3α) (P49840 whole entry): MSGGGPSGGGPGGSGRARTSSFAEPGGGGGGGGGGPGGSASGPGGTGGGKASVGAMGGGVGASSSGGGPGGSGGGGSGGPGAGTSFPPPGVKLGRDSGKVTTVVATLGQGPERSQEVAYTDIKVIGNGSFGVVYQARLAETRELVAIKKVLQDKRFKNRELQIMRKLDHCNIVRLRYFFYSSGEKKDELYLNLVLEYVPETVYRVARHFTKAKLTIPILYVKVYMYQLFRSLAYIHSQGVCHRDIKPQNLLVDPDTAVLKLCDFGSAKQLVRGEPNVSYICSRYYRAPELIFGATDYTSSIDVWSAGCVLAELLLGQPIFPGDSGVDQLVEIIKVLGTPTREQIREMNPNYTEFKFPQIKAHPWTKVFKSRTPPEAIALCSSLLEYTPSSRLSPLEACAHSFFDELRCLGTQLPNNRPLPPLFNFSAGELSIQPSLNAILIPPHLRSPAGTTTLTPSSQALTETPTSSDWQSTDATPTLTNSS
Compound,"IC50 [1, 5]","IC50 [2, 6]",other results
O=C1C[C@]2(CCOC2)CC2=C1C1(CCOCC1)c1c[nH]nc1N2 [Compound 901476],,,"IC50 [1, 3]: 100 to 1000 nM; IC50 [2, 4]: 100 to 1000 nM"
O=C1C[C@H](C(F)(F)F)CC2=C1C1(CCOCC1)c1c[nH]nc1N2 [Compound 901477],100 to 1000 nM,1000 to 5000 nM,
O=C1C[C@@H](C(F)(F)F)CC2=C1C1(CCOCC1)c1c[nH]nc1N2 [Compound 901478],100 to 1000 nM,100 to 1000 nM,
CCC1(c2cccc(OC)c2)C2=C(CC(C)(C)CC2=O)Nc2n[nH]c(C(=O)OC)c21 (stereo not drawn) [Compound 901480],≤ 100 nM,100 to 1000 nM,
CCC1(c2cccc(N3CC(C)(C)C3C(C)C)c2)C2=C(CC(C)(C)CC2=O)Nc2n[nH]cc21 (stereo not drawn) [Compound 902969],100 to 1000 nM,1000 to 5000 nM,
CCC1(c2cccc(N(C)c3ccncn3)c2)C2=C(CC(C)(C)CC2=O)Nc2n[nH]cc21 (stereo not drawn) [Compound 902970],≤ 100 nM,100 to 1000 nM,
CCC1(c2cccc(N(C)c3cnccn3)c2)C2=C(CC(C)(C)CC2=O)Nc2n[nH]cc21 (stereo not drawn) [Compound 902971],≤ 100 nM,≤ 100 nM,
CC1(C)CC(=O)C2=C(C1)Nc1n[nH]cc1[C@@]21CCOC2(CCCC2)C1 [Compound 907326],,,"IC50 [1, 7]: 100 to 1000 nM; IC50 [2, 8]: 1000 to 5000 nM"
CC1(C)CC(=O)C2=C(C1)Nc1n[nH]cc1[C@]21CCOC2(CCCC2)C1 [Compound 907327],,,"IC50 [1, 7]: 100 to 1000 nM; IC50 [2, 8]: 1000 to 5000 nM"
CC[C@@H]1C[C@]2(CCO1)C1=C(CC(C)(C)CC1=O)Nc1n[nH]cc12 [Compound 907328],100 to 1000 nM,1000 to 5000 nM,
CC[C@H]1C[C@@]2(CCO1)C1=C(CC(C)(C)CC1=O)Nc1n[nH]cc12 [Compound 907329],100 to 1000 nM,1000 to 5000 nM,
CCC1(c2cccc(N(C)C(=O)CN3CCCC3)c2)C2=C(CC(C)(C)CC2=O)Nc2n[nH]cc21 (stereo not drawn) [Compound 909202],100 to 1000 nM,1000 to 5000 nM,
CCC1(c2cc(N3CCOCC3)ccc2F)C2=C(CC(C)(C)CC2=O)Nc2n[nH]cc21 (stereo not drawn) [Compound 909203],100 to 1000 nM,1000 to 5000 nM,
CCC1(c2cccc(S(=O)(=O)C3CC3)c2)C2=C(CC(C)(C)CC2=O)Nc2n[nH]cc21 (stereo not drawn) [Compound 909204],≤ 100 nM,≤ 100 nM,"IC50 [2, 9]: 100 to 1000 nM"
CCCC(C(C)=O)c1cccc(C2(CC)C3=C(CC(C)(C)CC3=O)Nc3n[nH]cc32)c1 (stereo not drawn) [Compound 909205],≤ 100 nM,≤ 100 nM,
CC1(C)CC(=O)C2=C(C1)Nc1n[nH]cc1C21CCN(S(=O)(=O)C2CCCC2)CC1 [Compound 909206],≤ 100 nM,≤ 100 nM,"IC50 [1, 10]: ≤ 100 nM; IC50 [2, 11]: 100 to 1000 nM"
CC1(C)CC(=O)C2=C(C1)Nc1n[nH]cc1C21CCN(S(=O)(=O)CC2CC2)CC1 [Compound 909207],,,"IC50 [1, 7]: ≤ 100 nM; IC50 [1, 10]: ≤ 100 nM; IC50 [2, 8]: ≤ 100 nM; IC50 [2, 11]: 100 to 1000 nM"
O=C1CC2(CCC2)CC2=C1C1(CCOCC1)c1c[nH]nc1N2 [Compound 909208],,,"IC50 [1, 3]: ≤ 100 nM; IC50 [2, 4]: 100 to 1000 nM"
CC1(C)CC(=O)C2=C(C1)Nc1n[nH]cc1C21CN(c2ccncn2)C1 [Compound 909209],1000 to 5000 nM,1000 to 5000 nM,
CC1(C)CC(=O)C2=C(C1)Nc1n[nH]cc1[C@]21C[C@H](OCc2ccccc2)C1 [Compound 909210],,,"IC50 [1, 3]: 100 to 1000 nM; IC50 [2, 4]: 100 to 1000 nM"
CC1(C)CC(=O)C2=C(C1)Nc1n[nH]cc1[C@]21C[C@@H](OCc2ccccc2)C1 [Compound 909211],,,"IC50 [1, 3]: ≤ 100 nM; IC50 [2, 4]: 100 to 1000 nM"
CC[C@]1(c2cc(-c3ccnc(C)c3)ccc2F)C2=C(CC(C)(C)CC2=O)Nc2n[nH]cc21 [Compound 909213],> 5000 nM,> 5000 nM,

Compound,"IC50 [1, 5]","IC50 [2, 6]",other results
CCN(C(C)=O)c1cccc([C@]2(CC)C3=C(CC(C)(C)CC3=O)Nc3n[nH]cc32)c1 [Compound 909214],≤ 100 nM,≤ 100 nM,
CCN(C(C)=O)c1cccc(C2(CC)C3=C(CC(C)(C)CC3=O)Nc3n[nH]cc32)c1 (stereo not drawn) [Compound 909215],100 to 1000 nM,1000 to 5000 nM,
CC[C@@]1(c2ccccc2)C2=C(Nc3n[nH]cc31)[C@@H](C)C[C@@H](C)C2=O [Compound 909216],100 to 1000 nM,100 to 1000 nM,
CC[C@]1(c2ccccc2)C2=C(Nc3n[nH]cc31)[C@@H](C)C[C@@H](C)C2=O [Compound 909217],100 to 1000 nM,1000 to 5000 nM,
CC[C@]1(c2ccccc2)C2=C(Nc3n[nH]cc31)[C@H](C)C[C@H](C)C2=O [Compound 909218],> 5000 nM,> 5000 nM,
CC[C@@]1(c2ccccc2)C2=C(Nc3n[nH]cc31)[C@H](C)C[C@H](C)C2=O [Compound 909219],> 5000 nM,> 5000 nM,
CC[C@@]1(c2cc(-c3cnn(C)c3)ccc2F)C2=C(CC(C)(C)CC2=O)Nc2n[nH]cc21 [Compound 909220],≤ 100 nM,100 to 1000 nM,
CC[C@]1(c2cc(-c3cnn(C)c3)ccc2F)C2=C(CC(C)(C)CC2=O)Nc2n[nH]cc21 [Compound 909223],> 5000 nM,> 5000 nM,
CC1(C)CC(=O)C2=C(C1)Nc1n[nH]cc1C21COC2(CN(C(=O)OC(C)(C)C)C2)C1 (stereo not drawn) [Compound 911083],,,"IC50 [1, 7]: 100 to 1000 nM; IC50 [2, 8]: 1000 to 5000 nM"
CCC1(c2cccc(C(F)(F)F)c2)C2=C(CC(C)NC2=O)Nc2n[nH]cc21 (stereo not drawn) [Compound 911956],,,"IC50 [1, 7]: ≤ 100 nM; IC50 [2, 8]: 100 to 1000 nM"
CC1OCCC12C1=C(CC(C)(C)CC1=O)Nc1n[nH]cc12 (stereo not drawn) [Compound 911958],> 5000 nM,> 5000 nM,
CC[C@H]1CCN1c1cccc([C@@]2(CC)C3=C(CC(C)(C)CC3=O)Nc3n[nH]cc32)c1 [Compound 911972],1000 to 5000 nM,> 5000 nM,
CC1(C)CC(=O)C2=C(C1)Nc1n[nH]cc1C21COC2(CCC2)C1 (stereo not drawn) [Compound 911973],,,"IC50 [1, 7]: 100 to 1000 nM; IC50 [2, 8]: 100 to 1000 nM"
CCC1(c2cccc(N(C)c3cccnn3)c2)C2=C(CC(C)(C)CC2=O)Nc2n[nH]cc21 (stereo not drawn) [Compound 911975],≤ 100 nM,≤ 100 nM,"IC50 [1, 12]: 100 to 1000 nM; IC50 [2, 9]: 1000 to 5000 nM"
CCC1(c2cccc(N(C)c3cccnn3)c2)C2=C(CC(C)(C)CC2=O)Nc2n[nH]cc21 (stereo not drawn) [Compound 911976],100 to 1000 nM,> 5000 nM,
CCC1(c2cccc(-c3ccnc(OC)c3)c2)C2=C(CC(C)(C)CC2=O)Nc2n[nH]cc21 (stereo not drawn) [Compound 911989],1000 to 5000 nM,> 5000 nM,
CC[C@@]1(c2cccc(-c3c(C)nn(C)c3C)c2)C2=C(CC(C)(C)CC2=O)Nc2n[nH]cc21 [Compound 911990],≤ 100 nM,≤ 100 nM,"IC50 [1, 12]: ≤ 100 nM; IC50 [2, 9]: 100 to 1000 nM"
CCC1(c2cccc(-c3c(C)nn(C)c3C)c2)C2=C(CC(C)(C)CC2=O)Nc2n[nH]cc21 (stereo not drawn) [Compound 911991],100 to 1000 nM,> 5000 nM,
CCC1(c2cccc(-c3ccnn3C)c2)C2=C(CC(C)(C)CC2=O)Nc2n[nH]cc21 (stereo not drawn) [Compound 911992],≤ 100 nM,≤ 100 nM,"IC50 [1, 12]: ≤ 100 nM; IC50 [2, 9]: 100 to 1000 nM"
CCC1(c2cccc(N3CCc4ccncc43)c2)C2=C(CC(C)(C)CC2=O)Nc2n[nH]cc21 (stereo not drawn) [Compound 912004],1000 to 5000 nM,> 5000 nM,
CC[C@]1(c2cccc(C(F)(F)F)c2)C2=C(CCN(Cc3ccccc3)C2=O)Nc2n[nH]cc21 [Compound 912006],,,"IC50 [1, 7]: > 5000 nM; IC50 [2, 8]: > 5000 nM"
CCC1(c2cccc(N(CCc3ccccc3)C(C)=O)c2)C2=C(CC(C)(C)CC2=O)Nc2n[nH]cc21 (stereo not drawn) [Compound 912064],≤ 100 nM,≤ 100 nM,
